# Laboratory results from patent US11053204B2, “Pyrimidinyloxy benzene derivatives as herbicides” (FMC Corporation, priority 2015, dated 2021).
# What was measured:
# Assay in all cases: Test C postemergence, plant response rating
# Format in all cases: in vivo
# [1] = test system: blackgrass (Alopecurus myosuroides); conditions: for Plant response rating, Blackgrass: scale 0 to 100; for Blackgrass plant response rating: scale 0 to 100 (0 no effect, 100 complete control)
# Outline: (§1)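 Visual injury score, 0 = no effect, 100 = complete control, assigned against untreated controls after 13 to 15 d in the greenhouse. Compounds were applied in a surfactant-containing non-phytotoxic solvent mix, preemergence to seeded loam/sand or silt loam soil, or postemergence to 1- to 4-leaf plants (2 to 18 cm).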
# [2] = test system: oat, wild (wild oat Avena fatua); conditions: for Plant response rating, Oat, Wild: scale 0 to 100; for Oat, Wild plant response rating: scale 0 to 100 (0 no effect, 100 complete control)
# Outline: as §1
# [3] = test system: waterhemp (common waterhemp, Amaranthus rudis); conditions: for Plant response rating, Waterhemp: scale 0 to 100; for Waterhemp plant response rating: scale 0 to 100 (0 no effect, 100 complete control)
# Outline: as §1
# corn (Zea mays) = conditions: for Plant response rating, Corn: scale 0 to 100; for Corn plant response rating: scale 0 to 100 (0 no effect, 100 complete control)
# Outline: as §1
# [4] = test system: ragweed (common ragweed, Ambrosia elatior); conditions: for Plant response rating, Ragweed: scale 0 to 100; for Ragweed plant response rating: scale 0 to 100 (0 no effect, 100 complete control)
# Outline: as §1
# [5] = test system: velvetleaf (Abutilon theophrasti); conditions: for Plant response rating, Velvetleaf: scale 0 to 100; for Velvetleaf plant response rating: scale 0 to 100 (0 no effect, 100 complete control)
# Outline: as §1
# [6] = test system: crabgrass, large (large crabgrass, Digitaria sanguinalis); conditions: for Plant response rating, Crabgrass, Large: scale 0 to 100; for Crabgrass, Large plant response rating: scale 0 to 100 (0 no effect, 100 complete control)
# Outline: as §1
# [7] = test system: lambsquarters (Chenopodium album); conditions: for Plant response rating, Lambsquarters: scale 0 to 100; for Lambsquarters plant response rating: scale 0 to 100 (0 no effect, 100 complete control)
# Outline: as §1
# [8] = test system: oilseed rape (Brassica napus); conditions: for Plant response rating, Oilseed Rape: scale 0 to 100; for Oilseed Rape plant response rating: scale 0 to 100 (0 no effect, 100 complete control)
# Outline: as §1
# [9] = test system: wheat (winter wheat, Triticum aestivum); conditions: for Plant response rating, Wheat: scale 0 to 100; for Wheat plant response rating: scale 0 to 100 (0 no effect, 100 complete control)
# Outline: as §1
# [10] = test system: galium (catchweed bedstraw, Galium aparine); conditions: for Plant response rating, Galium: scale 0 to 100; for Galium plant response rating: scale 0 to 100 (0 no effect, 100 complete control)
# Outline: as §1
# [11] = test system: ryegrass, Italian (Italian ryegrass, Lolium multiflorum); conditions: for Plant response rating, Ryegrass, Italian: scale 0 to 100; for Ryegrass, Italian plant response rating: scale 0 to 100 (0 no effect, 100 complete control)
# Outline: as §1
# kochia (Kochia scoparia) = conditions: for Plant response rating, Kochia: scale 0 to 100; for Kochia plant response rating: scale 0 to 100 (0 no effect, 100 complete control)
# Outline: as §1
# [12] = test system: barnyardgrass (Echinochloa crus-galli); conditions: for Plant response rating, Barnyardgrass: scale 0 to 100; for Barnyardgrass plant response rating: scale 0 to 100 (0 no effect, 100 complete control)
# Outline: as §1
# [13] = test system: nutsedge, yellow (yellow nutsedge, Cyperus esculentus); conditions: for Plant response rating, Nutsedge, Yellow: scale 0 to 100; for Nutsedge, Yellow plant response rating: scale 0 to 100 (0 no effect, 100 complete control)
# Outline: as §1
# soybean (Glycine max) = conditions: for Plant response rating, Soybean: scale 0 to 100; for Soybean plant response rating: scale 0 to 100 (0 no effect, 100 complete control)
# Outline: as §1
smiles,measurement,setting,value
O=C(OCCC(F)(F)F)c1c(Br)cccc1Oc1ncc(Br)cn1 [Compound 33],"Plant response rating, Blackgrass",[1]; 16 g ai/ha,5
same,"Plant response rating, Blackgrass",[1]; 31 g ai/ha,5
same,Blackgrass plant response rating,[1]; 62 g ai/ha,10
same,Blackgrass plant response rating,[1]; 125 g ai/ha,20
same,"Plant response rating, Oat, Wild",[2]; 16 g ai/ha,5
same,"Plant response rating, Oat, Wild",[2]; 31 g ai/ha,10
same,"Oat, Wild plant response rating",[2]; 62 g ai/ha,25
same,"Oat, Wild plant response rating",[2]; 125 g ai/ha,30
same,"Plant response rating, Waterhemp",[3]; 16 g ai/ha,90
same,"Plant response rating, Waterhemp",[3]; 31 g ai/ha,80
same,Waterhemp plant response rating,[3]; 62 g ai/ha,100
same,Waterhemp plant response rating,[3]; 125 g ai/ha,100
same,"Plant response rating, Corn",corn (Zea mays); 16 g ai/ha,20
same,"Plant response rating, Corn",corn (Zea mays); 31 g ai/ha,25
same,Corn plant response rating,corn (Zea mays); 62 g ai/ha,25
same,Corn plant response rating,corn (Zea mays); 125 g ai/ha,30
same,"Plant response rating, Ragweed",[4]; 16 g ai/ha,40
same,"Plant response rating, Ragweed",[4]; 31 g ai/ha,30
same,Ragweed plant response rating,[4]; 62 g ai/ha,50
same,Ragweed plant response rating,[4]; 125 g ai/ha,60
same,"Plant response rating, Velvetleaf",[5]; 16 g ai/ha,25
same,"Plant response rating, Velvetleaf",[5]; 31 g ai/ha,50
same,Velvetleaf plant response rating,[5]; 62 g ai/ha,65
same,Velvetleaf plant response rating,[5]; 125 g ai/ha,75
same,"Plant response rating, Crabgrass, Large",[6]; 16 g ai/ha,5
same,"Plant response rating, Crabgrass, Large",[6]; 31 g ai/ha,5
same,"Crabgrass, Large plant response rating",[6]; 62 g ai/ha,10
same,"Crabgrass, Large plant response rating",[6]; 125 g ai/ha,15
same,"Plant response rating, Lambsquarters",[7]; 16 g ai/ha,60
same,"Plant response rating, Lambsquarters",[7]; 31 g ai/ha,70
same,Lambsquarters plant response rating,[7]; 62 g ai/ha,80
same,Lambsquarters plant response rating,[7]; 125 g ai/ha,90
same,"Plant response rating, Oilseed Rape",[8]; 16 g ai/ha,35
same,"Plant response rating, Oilseed Rape",[8]; 31 g ai/ha,45
same,Oilseed Rape plant response rating,[8]; 62 g ai/ha,55
same,Oilseed Rape plant response rating,[8]; 125 g ai/ha,95
same,"Plant response rating, Wheat",[9]; 16 g ai/ha,0
same,"Plant response rating, Wheat",[9]; 31 g ai/ha,0
same,Wheat plant response rating,[9]; 62 g ai/ha,0
same,Wheat plant response rating,[9]; 125 g ai/ha,5
same,"Plant response rating, Galium",[10]; 16 g ai/ha,50
same,"Plant response rating, Galium",[10]; 31 g ai/ha,70
same,Galium plant response rating,[10]; 62 g ai/ha,80
same,Galium plant response rating,[10]; 125 g ai/ha,85
same,"Plant response rating, Ryegrass, Italian",[11]; 16 g ai/ha,0
same,"Plant response rating, Ryegrass, Italian",[11]; 31 g ai/ha,5
same,"Ryegrass, Italian plant response rating",[11]; 62 g ai/ha,5
same,"Ryegrass, Italian plant response rating",[11]; 125 g ai/ha,30
same,"Plant response rating, Kochia",kochia (Kochia scoparia); 16 g ai/ha,90
same,"Plant response rating, Kochia",kochia (Kochia scoparia); 31 g ai/ha,95
same,Kochia plant response rating,kochia (Kochia scoparia); 62 g ai/ha,95
same,Kochia plant response rating,kochia (Kochia scoparia); 125 g ai/ha,95
same,"Plant response rating, Barnyardgrass",[12]; 16 g ai/ha,5
same,"Plant response rating, Barnyardgrass",[12]; 31 g ai/ha,5
same,Barnyardgrass plant response rating,[12]; 62 g ai/ha,10
same,Barnyardgrass plant response rating,[12]; 125 g ai/ha,25
same,"Plant response rating, Nutsedge, Yellow",[13]; 16 g ai/ha,5
same,"Plant response rating, Nutsedge, Yellow",[13]; 31 g ai/ha,5
same,"Nutsedge, Yellow plant response rating",[13]; 62 g ai/ha,5
same,"Nutsedge, Yellow plant response rating",[13]; 125 g ai/ha,10
same,"Plant response rating, Soybean",soybean (Glycine max); 16 g ai/ha,25
same,"Plant response rating, Soybean",soybean (Glycine max); 31 g ai/ha,65
same,Soybean plant response rating,soybean (Glycine max); 62 g ai/ha,30
same,Soybean plant response rating,soybean (Glycine max); 125 g ai/ha,55
